Experimental data as given in patent publication US20240173440A1, “HIGH PURITY COPPER RADIOPHARMACEUTICAL COMPOSITIONS AND DIAGNOSTIC AND THERAPEUTIC USES THEREOF” (Nuclidium AG, priority 2022, published 2024).

Columns and labels:
[1] = Lipophilicity, log D by shake-flask method (1-octanol/PBS pH 7.4); type: physicochemical; settings: shake-flask, Table 17, mean ± SD
Protocol: The radiotracer (1 μM) was added to a 50:50 pre-saturated mixture of 1-octanol and phosphate buffered saline (PBSpH 7.4). The solution was vortexed for 30 min and then centrifuged at 3,000 rpm to achieve a phase separation. Aliquots from each phase were collected and measured in a gamma-counter. The distribution coefficient was calculated as the average of the logarithmic values of the ratio between the radioactivity in the organic and the PBS phase.
Table 17. Lipophilicity expressed as the log distribution coefficient D (log D(Octanol/PBS pH7.4)) of ^61Cu-radiotracers versus ^68Ga-radiotracers (reference radiotracers).
In a pre-lubricated Eppendorf tube, a pre-saturated mixture of 500 μL of 1-octanol and 500 μL of PBS pH 7.4 (phosphate-buffered saline) were added. An aliquot of […] in 10 μL of the radioligand was added to this mixture, shaken for 30 min, and then centrifuged at 3000 rcf for 10 min to achieve phase separation. Aliquots of 100 μL were removed from the 1-octanol and from the PBS phases, and the activity was measured in a […]. The partition coefficient was calculated as the average log ratio value of the radioactivity in the organic fraction and PBS fraction.

LNCaP cells = assay: In vitro cellular uptake (cell surface and internalized fractions) in LNCaP cells; type: cell-based; settings: for Cell surface fraction / Internalized fraction: specific uptake
Protocol: The cellular uptake was studied in vitro using intact cells seeded in 6-well plates overnight. On the day of the experiment, the cells were washed and incubated with each of the exemplified [^61Cu]Cu-radiotracer at different time points, either alone or in the presence of a blocking agent to distinguish between specific and non-specific uptake. At each investigated time point, the medium containing the unbound (free) radiotracer was removed, followed by two washing steps with ice-cold phosphate-buffered saline. The cells were then treated 2×5 min with ice-cold glycine solution (0.05 M, pH 2.8) to detach the cell surface-bound radiotracer (acid released). Afterwards, the cells containing the internalized radiotracer were detached with 1 M NaOH at 37° C. and collected for measurement. The amount of specific cell surface-bound and internalized radiotracer is expressed as percentage of the total applied activity, after subtracting the non-specific values.
2-(phosphonomethyl)-pentanedioic acid (2-PMPA, 10 μM) was used to determine non-specific binding (FIG. 14).
Cellular uptake and distribution between cell surface (cell membrane bound) and internalized fractions of ^61Cu-labeled PSMA-I&T constructs versus their ^68Ga counterparts (Table 19). The values are expressed as % of the applied activity and refer to the specific uptake calculated after subtracting the non-specific values (measured in the presence of 10 μM 2-PMPA) from the total values (specific=total−non specific).

LNCaP xenografts [2] = assay: Quantitative biodistribution in LNCaP xenografted mice; type: in vivo; settings: LNCaP xenografts
Protocol: The mice were randomly distributed in groups and euthanized at 1 and at 4 hours post-injection. The organs of interest were collected, rinsed, blotted, weighed and counted in a gamma counter. The results are expressed as percentage of injected activity per gram (% IA/g), representing the mean±standard deviation of n=4-8 mice per group and they were obtained by extrapolation from counts of an aliquot taken from the injected solution as standard.
The biodistribution of the [^61Cu]Cu-NODAGA radiotracers was compared with the reference compounds used in patients under identical experimental conditions. The mice were randomly distributed in groups, injected with the radiotracer under investigation and euthanized at 1 and at 4 hours post-injection of the radiotracers under investigation. The organs of interest were collected, rinsed, blotted, weighed and counted in a gamma counter. The results are expressed as percentage of injected activity per gram (% IA/g), representing the mean±standard deviation of all mice per group and they were obtained by extrapolation from counts of an aliquot taken from the injected solution as standard.

LNCaP xenografts [3] = assay: PET/CT imaging in LNCaP xenografted mice; type: in vivo; settings: LNCaP-xenografted nude mice
Protocol: Tumor xenografted mice were injected intravenously into the tail vein with the tested radiotracer. […] Mice were anesthetized with 1.5% isoflurane and dynamic PET scans were acquired during 1 hour upon injection of the radiotracer. The mice were euthanized by CO2 at 4 hours p.i., the bladder was mechanically emptied, and static PET scans were acquired for 30 min. PET images were acquired using the R-CUBE PET scanner system (MOLECUBES, Gent, Belgium) and they were decay corrected and reconstructed with the VivoQuant software version 4.0. The CT was imaged supine, headfirst, using the NanoSPECT/CT™ scanner (Bioscan Inc.). Topograms and helical CT scans of the whole mouse were first acquired using the following parameters: X-ray tube current: 177 μA, X-ray tube voltage 45 kVp, 90 seconds and 180 frames per rotation, pitch 1. CT images were reconstructed using CTReco (version r1.146), with a standard filtered back projection algorithm (exact cone beam) and post-filtered (RamLak, 100% frequency cut-off), resulting in a pixel size of 0.2 mm. Co-registered PET/CT images were visualized using maximum intensity projection (MIP) with InVivoScope (version 1.43, Bioscan Inc.). The results are presented in the Examples that follow.

PSMA = PSMA (Homo sapiens (Human), UniProt Q04609); assay: Specificity study: PET/CT in LNCaP xenografts after blocking with 2-PMPA, and free [61Cu]CuCl2; type: in vivo, mice; settings: PET/CT 1 hour p.i.
Protocol: The specificity of [^61Cu]Cu-NODAGA-PSMA-I&T and [^61Cu]Cu-DOTAGA-PSMA-I&T was assessed in LNCaP xenografted mice, firstly injected with 1.3 μmol (300 μg) of 2-Phosphonomethyl pentanedioic acid (2-PMPA) as the blocking agent, followed by the injection of the radiotracer e.g. [^61Cu]Cu-DOTAGA-PSMA-I&T (100 μL/[…]/4-8 MBq) or [^61Cu]Cu-NODAGA-PSMA-I&T (100 μL/[…]/4-8 MBq). One-hour post injection PET/CT images were acquired as described in Example 8. In addition, PET/CT image of xenografts after injection of [^61Cu]CuCl2 (100 μL/7 MBq) was acquired in order to assess the total body distribution of free (uncomplexed)^61Cu. The results are shown in FIG. 10, panels A and B. L=liver; K=kidneys; T=tumor; Bl=bladder; I=intestine.

PSMA, sequence (Q04609 whole entry): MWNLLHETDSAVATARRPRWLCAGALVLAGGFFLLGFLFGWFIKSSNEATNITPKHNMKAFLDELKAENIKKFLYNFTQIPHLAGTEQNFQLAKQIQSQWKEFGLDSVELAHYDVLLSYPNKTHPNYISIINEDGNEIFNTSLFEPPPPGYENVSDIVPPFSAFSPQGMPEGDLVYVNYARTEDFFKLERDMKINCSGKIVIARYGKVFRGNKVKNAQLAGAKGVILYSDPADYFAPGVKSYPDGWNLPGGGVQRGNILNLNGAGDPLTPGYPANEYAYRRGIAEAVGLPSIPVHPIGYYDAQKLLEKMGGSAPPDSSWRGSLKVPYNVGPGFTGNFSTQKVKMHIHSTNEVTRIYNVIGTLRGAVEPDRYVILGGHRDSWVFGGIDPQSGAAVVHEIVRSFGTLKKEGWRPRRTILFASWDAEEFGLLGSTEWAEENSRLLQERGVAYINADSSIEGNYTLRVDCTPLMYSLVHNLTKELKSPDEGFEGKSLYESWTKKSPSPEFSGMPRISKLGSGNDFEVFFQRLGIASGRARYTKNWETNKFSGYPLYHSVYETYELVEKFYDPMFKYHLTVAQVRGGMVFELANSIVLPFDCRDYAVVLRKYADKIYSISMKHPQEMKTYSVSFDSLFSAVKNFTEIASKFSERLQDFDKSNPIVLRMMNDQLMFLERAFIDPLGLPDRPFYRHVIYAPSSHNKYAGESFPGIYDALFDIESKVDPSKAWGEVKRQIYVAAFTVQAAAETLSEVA

log D(O/PBS pH 7.4) [1]: −2.69±0.44
Biodistribution Adrenal (LNCaP xenografts [2]; 1 hour p.i.): 9.35 ± 1.50 % IA/g
Biodistribution Blood (LNCaP xenografts [2]; 1 hour p.i.): 2.06 ± 0.24 % IA/g
Biodistribution Bone (LNCaP xenografts [2]; 1 hour p.i.): 2.31 ± 0.36 % IA/g
Biodistribution Heart (LNCaP xenografts [2]; 1 hour p.i.): 3.73 ± 0.32 % IA/g
Biodistribution Intestine (LNCaP xenografts [2]; 1 hour p.i.): 8.95 ± 0.62 % IA/g
Biodistribution Kidneys (LNCaP xenografts [2]; 1 hour p.i.): 57 ± 6 % IA/g
Biodistribution LNCaP-tumor (LNCaP xenografts [2]; 1 hour p.i.): 6.06 ± 0.25 % IA/g
Biodistribution Liver (LNCaP xenografts [2]; 1 hour p.i.): 19.3 ± 3.3 % IA/g
Biodistribution Lung (LNCaP xenografts [2]; 1 hour p.i.): 6.35 ± 0.35 % IA/g
Biodistribution Muscle (LNCaP xenografts [2]; 1 hour p.i.): 1.00 ± 0.05 % IA/g
Biodistribution Pancreas (LNCaP xenografts [2]; 1 hour p.i.): 2.82 ± 0.67 % IA/g
Biodistribution Salivary glands (LNCaP xenografts [2]; 1 hour p.i.): 5.60 ± 1.39 % IA/g
Biodistribution Spleen (LNCaP xenografts [2]; 1 hour p.i.): 4.64 ± 1.35 % IA/g
Biodistribution Stomach (LNCaP xenografts [2]; 1 hour p.i.): 7.77 ± 0.62 % IA/g
Ratio Tumor/Blood (LNCaP xenografts [2]; 1 hour p.i.): 2.97 ± 0.23
Ratio Tumor/Kidney (LNCaP xenografts [2]; 1 hour p.i.): 0.11 ± 0.01
Ratio Tumor/Liver (LNCaP xenografts [2]; 1 hour p.i.): 0.32 ± 0.05
Ratio Tumor/Muscles (LNCaP xenografts [2]; 1 hour p.i.): 6.08 ± 0.22
Biodistribution Adrenal (LNCaP xenografts [2]; 4 hours p.i.): 6.46 ± 2.38 % IA/g
Biodistribution Blood (LNCaP xenografts [2]; 4 hours p.i.): 1.12 ± 0.24 % IA/g
Biodistribution Bone (LNCaP xenografts [2]; 4 hours p.i.): 1.69 ± 0.25 % IA/g
Biodistribution Heart (LNCaP xenografts [2]; 4 hours p.i.): 2.08 ± 0.33 % IA/g
Biodistribution Intestine (LNCaP xenografts [2]; 4 hours p.i.): 7.74 ± 1.76 % IA/g
Biodistribution Kidneys (LNCaP xenografts [2]; 4 hours p.i.): 22.1 ± 2.2 % IA/g
Biodistribution LNCaP-tumor (LNCaP xenografts [2]; 4 hours p.i.): 4.88 ± 0.63 % IA/g
Biodistribution Liver (LNCaP xenografts [2]; 4 hours p.i.): 13.9 ± 2.2 % IA/g
Biodistribution Lung (LNCaP xenografts [2]; 4 hours p.i.): 4.67 ± 0.76 % IA/g
Biodistribution Muscle (LNCaP xenografts [2]; 4 hours p.i.): 0.48 ± 0.08 % IA/g
Biodistribution Pancreas (LNCaP xenografts [2]; 4 hours p.i.): 1.71 ± 0.23 % IA/g
Biodistribution Salivary glands (LNCaP xenografts [2]; 4 hours p.i.): 2.31 ± 0.19 % IA/g
Biodistribution Spleen (LNCaP xenografts [2]; 4 hours p.i.): 2.95 ± 0.73 % IA/g
Biodistribution Stomach (LNCaP xenografts [2]; 4 hours p.i.): 7.10 ± 0.97 % IA/g
Ratio Tumor/Blood (LNCaP xenografts [2]; 4 hours p.i.): 4.56 ± 1.49
Ratio Tumor/Kidney (LNCaP xenografts [2]; 4 hours p.i.): 0.22 ± 0.04
Ratio Tumor/Liver (LNCaP xenografts [2]; 4 hours p.i.): 0.35 ± 0.05
Ratio Tumor/Muscles (LNCaP xenografts [2]; 4 hours p.i.): 10.5 ± 2.8
uptake in PSMA-positive tumors and kidneys in xenografts pre-injected with 2-PMPA (PSMA): significantly lower uptake
Structure (SMILES): O=C([O-])CN1CCN(CC(=O)[O-])CCN(C(CCC(=O)N[C@H](Cc2ccc(O)c(I)c2)C(=O)N[C@H](Cc2ccccc2)C(=O)N[C@H](CCCCNC(=O)CCCCCCC(=O)NCCCC[C@H](NC(=O)N[C@@H](CCC(=O)O)C(=O)O)C(=O)O)C(=O)O)C(=O)O)CCN(CC(=O)O)CC1.[61Cu+2] (stereo partly shown) [[^61Cu]Cu-DOTAGA-PSMA-I&T]
Cell surface fraction (LNCaP cells; 5 min): 3.7 ± 0.5 % of the applied activity
Internalized fraction (LNCaP cells; 5 min): 0.7 ± 0.1 % of the applied activity
Cell surface fraction (LNCaP cells; 15 min): 8.1 ± 0.7 % of the applied activity
Internalized fraction (LNCaP cells; 15 min): 2.8 ± 0.2 % of the applied activity
Cell surface fraction (LNCaP cells; 30 min): 11.6 ± 1.0 % of the applied activity
Internalized fraction (LNCaP cells; 30 min): 6.2 ± 0.5 % of the applied activity
Cell surface fraction (LNCaP cells; 60 min): 13.4 ± 0.8 % of the applied activity
Internalized fraction (LNCaP cells; 60 min): 13.3 ± 0.5 % of the applied activity
Cell surface fraction (LNCaP cells; 120 min): 14.7 ± 1.0 % of the applied activity
Internalized fraction (LNCaP cells; 120 min): 21.3 ± 0.9 % of the applied activity
PSMA-mediated cellular uptake (LNCaP cells; after 2h at 37° C.): approx. 35%
part of the cellular uptake being internalized (LNCaP cells; after 2h at 37° C.): 50-60%
accumulation in tumor and target-positive tissues (LNCaP xenografts [2]): high accumulation in PSMA-positive (LNCaP) tumor and PSMA-positive tissues
distribution on PET/CT images (LNCaP xenografts [3]): lower tumor, but also lower kidney uptake
